These compounds were tested on Dengue-2 (Strain New Guinea C) (assay: Viral yield assay against Dengue-2 in Vero cells). Details: Dengue virus, DENV2; viral yield assay, Vero cells, MOI 0.1, 48 hours post infection; read-out: Activity (EC50 in μM) DENV-2.
Format: cell-based, Dengue virus
How it was run: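 Infect Vero cells with virus (MOI 0.1), add compound or DMSO, incubate at 37° C, collect progeny at 48 hours post infection, then titrate on Vero cells to obtain EC50.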
Work on `COc1ccc(Cl)c(NC(=O)c2sc3nc(-c4ccc5c(c4)OCO5)ccc3c2N)c1` [Compound 589, 3-amino-6-(1,3-benzodioxol-5-yl)-N-(2-chloro-5-methoxy-phenyl)thieno[2,3-b] pyridine-2-carboxamide] yielded an EC50 of under 5 µM.
Work on `CC(=O)c1cnc2sc(C(=O)Nc3cccc(F)c3)c(C)c2c1` [Compound 391, 5-acetyl-N-(3-fluorophenyl)-3-methyl-thieno[2,3-b]pyridine-2-carboxamide] yielded an EC50 of under 5 µM.
`COc1cccc(-c2ccc3c(N)c(C(=O)Nc4cccc(C)c4C)sc3n2)c1` [Compound 562, 3-amino-N-(2,3-dimethylphenyl)-6-(3-methoxyphenyl)thieno[2,3-b]pyridine-2-carboxamide] was tested, and the EC50 was under 5 µM.
`Nc1c(C(=O)Nc2ccc(F)c(Cl)c2)sc2nc(-c3ccc4c(c3)OCO4)ccc12` [Compound 595, 3-amino-6-(1,3-benzodioxol-5-yl)-N-(3-chloro-4-fluoro-phenyl)thieno[2,3-b] pyridine-2-carboxamide] gave an EC50 of under 5 µM.
`Nc1c(C(=O)N(CCC(=O)O)c2ccc(Cl)cc2)sc2nc(-c3ccc(Cl)cc3)ccc12` [Compound 355, 3-(N-[3-amino-6-(4-chloro-phenyl)thieno [2,3-b]pyridine-2-carbonyl]-4-chloro-anilino) propanoic acid] showed an EC50 of under 5 µM.
`COc1ccc(C(F)(F)F)cc1NC(=O)c1sc2nc(-c3cccs3)ccc2c1N` [Compound 442, 3-amino-N-[2-methoxy-5-(trifluoromethyl)phenyl]-6-(2-thienyl) thieno[2,3-b]pyridine-2-carboxamide] gave an EC50 of under 5 µM.
In the case of `Nc1c(C(=O)Nc2ccc(C(=O)C(F)(F)F)cc2)sc2nc(-c3ccc(Cl)cc3)ccc12` [Compound 351, 3-amino-6-(4-chlorophenyl)-N-[4-(2,2,2-tri-fluoroacetyl)phenyl]thieno [2,3-b]pyridine-2-carboxamide], the EC50 is reported as under 5 µM.
`COc1ccc(-c2ccc3c(N)c(C(=O)Nc4cccc(Cl)c4)sc3n2)cc1OC` [Compound 540, 3-amino-N-(3-chlorophenyl)-6-(3,4-dimethoxyphenyl)thieno[2,3-b]pyridine-2-carboxamide] showed an EC50 of under 5 µM.
`COc1cccc(-c2ccc3c(N)c(C(=O)N(CCC(=O)O)c4ccc(OC(F)(F)F)cc4)sc3n2)c1` [Compound 354, 3-[N-[3-amino-6-(3-methoxy-phenyl)thieno[2,3-b]pyridine-2-carbonyl]-4-(tri-fluoro-methoxy)anili-no]propanoic acid] showed an EC50 of 5 to 25 µM.
Compound `Cc1cc(C)c2c(C)c(C(=O)Nc3ccc(NC(=O)C4CC4)cc3)sc2n1` [Compound 393, N-[4-(cyclopropanecarbonylamino)phenyl]-3,4,6-trimethyl-thieno[2,3-b]pyridine-2-carboxamide] has an EC50 of 5 to 25 µM.
`Cc1ccc(NC(=O)c2sc3nc(-c4ccc(F)cc4)ccc3c2N)cc1C` [Compound 607, 3-amino-N-(3,4-dimethylphenyl)-6-(4-fluorophenyl)thieno[2,3-b]pyridine-2-carboxamide] showed an EC50 of under 5 µM.
Compound `COc1cccc(-c2ccc3c(N)c(C(=O)Nc4ccc5c(c4)OCO5)sc3n2)c1` [Compound 511, 3-amino-N-(1,3-benzodioxol-5-yl)-6-(3-methoxyphenyl)thieno[2,3-b]pyridine-2-carboxamide] has an EC50 of under 5 µM.
Work on `Nc1c(C(=O)Nc2nccs2)sc2nc3c(cc12)CCCCC3` [Compound 366, 3-amino-N-(thiazol-2-yl)-6,7,8,9-tetrahydro-5H-cyclohepta [b]thieno[3,2-e]pyridine-2-carboxamide] yielded an EC50 of under 5 µM.
With `Nc1c(C(=O)Nc2ccc(S(=O)(=O)O)cc2)sc2nc(-c3ccc(Cl)cc3)ccc12` [Compound 346, 4-[[3-amino-6-(4-chlorophenyl)thieno[2,3-b]pyridine-2-carbonyl]amino]benzenesulfonic acid] the EC50 was under 5 µM.
`CC(=O)c1cnc2sc(C(=O)NCc3ccc(CN(C)C)cc3)c(C)c2c1` [Compound 400] gave an EC50 of under 5 µM.

Same assay, conditions: Dengue virus, Vero, 48 h, read-out: Activity (EC50 class) against Dengue-2 Virus in Vero cells
For `COCc1cc(C)nc2sc3c(=O)n(-c4cccc5ccccc45)nnc3c12` [Compound 150, 9-Methoxymethyl-7-methyl-3-naphthalen-1-yl-3H-pyrido[3′,2′:4,5]thieno[3,2-d][1,2,3]triazin-4-one], the EC50 was over 25 µM.
Work on `Cc1ccccc1NC(=O)c1sc2nc3c(c(-c4ccco4)c2c1N)CCCC3` [Compound 218, 3-Amino-4-furan-2-yl-5,6,7,8-tetrahydro-thieno[2,3-b]quinoline-2-carboxylic acid o-tolylamide] yielded an EC50 of over 25 µM.
In the case of `Cc1cc(C)c2c(N)c(C(=O)Nc3ccc(F)c(Cl)c3)sc2n1` [Compound 200, 3-Amino-4,6-dimethyl-thieno[2,3-b]pyridine-2-carboxylic acid (3-chloro-4-fluoro-phenyl)-amide], the EC50 is reported as over 25 µM.
For `CCCCOc1ccc(NC(=O)c2sc3nc(N)c(C#N)cc3c2N)cc1` [Compound 70, 3,6-Diamino-5-cyano-thieno[2,3-b]pyridine-2-carboxylic acid (4-butoxy-phenyl)-amide], the EC50 was 5 to 25 µM.
`CC(C)NC(=O)c1sc2nc3c(c(-c4cccs4)c2c1N)CN(C)CC3` [Compound 273, 3-Amino-6-methyl-4-thiophen-2-yl-5,6,7,8-tetrahydro-thieno[2,3-b][1,6]naphthyridine-2-carboxylic acid isopropylamide] was tested, and the EC50 was over 25 µM.

Same assay, conditions: Dengue virus; Vero cells, MOI 0.1, harvested 48 hours post infection; read-out: Activity (EC50 class) against Dengue-2 Virus in Vero cells
Compound `Cc1ccc(F)cc1NC(=O)c1sc2nc3c(cc2c1N)CN(C)CC3` [Compound 61, 3-Amino-6-methyl-5,6,7,8-tetrahydro-thieno[2,3-b][1,6]naphthyridine-2-carboxylic acid (5-fluoro-2-methyl-phenyl)-amide] has an EC50 of under 5 µM.
`CC(=O)N1CCc2nc3sc(C(=O)Nc4ccc(C(C)(C)C)cc4)c(N)c3c(C(F)(F)F)c2C1` [Compound 56, 6-Acetyl-3-amino-4-trifluoromethyl-5,6,7,8-tetrahydro-thieno[2,3-b][1,6]naphthyridine-2-carboxylic acid (4-tert-butyl-phenyl)-amide] was tested, and the EC50 was under 5 µM.
`CCc1nnc(NC(=O)c2sc3nc(C)cc(C(F)(F)F)c3c2N)s1` [Compound 65, 3-Amino-6-methyl-4-trifluoromethyl-thieno[2,3-b]pyridine-2-carboxylic acid (5-ethyl-[1,3,4]thiadiazol-2-yl)-amide] gave an EC50 of 5 to 25 µM.
`CN1CCc2nc3sc(C(=O)Nc4ccc(C(F)(F)F)cc4)c(N)c3cc2C1` [Compound 42, 3-Amino-6-methyl-5,6,7,8-tetrahydro-thieno[2,3-b][1,6]naphthyridine-2-carboxylic acid (4-trifluoromethyl-phenyl)-amide] was tested, and the EC50 was under 5 µM.
For `CN1CCc2nc3sc(C(=O)Nc4ccc(C(C)(C)C)cc4)c(N)c3cc2C1` [Compound 35, 3-Amino-6-methyl-5,6,7,8-tetrahydro-thieno[2,3-b][1,6]naphthyridine-2-carboxylic acid (4-tert-butyl-phenyl)-amide], the EC50 was under 5 µM.
`CN1CCc2nc3sc(C(=O)Nc4ccccc4)c(N)c3c(-c3ccccc3)c2C1` [Compound 49, 3-Amino-6-methyl-4-phenyl-5,6,7,8-tetrahydro-thieno[2,3-b][1,6]naphthyridine-2-carboxylic acid phenylamide] showed an EC50 of under 5 µM.
With `CCN(CC)C(=O)c1sc2nc(C)cc(C)c2c1N` [Compound 167, 3-Amino-4,6-dimethyl-thieno[2,3-b]pyridine-2-carboxylic acid diethylamide] the EC50 was over 25 µM.
For `Nc1c(C(=O)Nc2ccc([N+](=O)[O-])cc2)sc2nc3c(c(-c4ccco4)c12)CCC3` [Compound 212, 3-Amino-4-furan-2-yl-6,7-dihydro-5H-cyclopenta[b]thieno[3,2-e]pyridine-2-carboxylic acid (4-nitro-phenyl)-amide], the EC50 was over 25 µM.
`Cc1ccc(NC(=O)c2sc3nc4c(cc3c2N)CN(C)CC4)cc1Cl` [Compound 45, 3-Amino-6-methyl-5,6,7,8-tetrahydro-thieno[2,3-b][1,6]naphthyridine-2-carboxylic acid (3-chloro-4-methyl-phenyl)-amide] was tested, and the EC50 was under 5 µM.
With `CN1CCc2nc3sc(C(=O)Nc4nc5ccccc5s4)c(N)c3cc2C1` [Compound 62, 3-Amino-6-methyl-5,6,7,8-tetrahydro-thieno[2,3-b][1,6]naphthyridine-2-carboxylic acid benzothiazol-2-ylamide] the EC50 was under 5 µM.
With `Cc1cc(C)c2c(N)c(C(=O)Nc3cccc4cccnc34)sc2n1` [Compound 121, 3-Amino-4,6-dimethyl-thieno[2,3-b]pyridine-2-carboxylic acid quinolin-8-ylamide] the EC50 was over 25 µM.
Compound `Cc1cc(C(F)(F)F)c2c(N)c(C(=O)Nc3cccc4ccccc34)sc2n1` [Compound 128, 3-Amino-6-methyl-4-trifluoromethyl-thieno[2,3-b]pyridine-2-carboxylic acid naphthalen-1-ylamide] has an EC50 of over 25 µM.
Work on `CN1CCc2nc3sc(C(=O)Nc4ccccc4Cl)c(N)c3cc2C1` [Compound 19, 3-Amino-6-methyl-5,6,7,8-tetrahydro-thieno[2,3-b][1,6]naphthyridine-2-carboxylic acid (2-chloro-phenyl)-amide] yielded an EC50 of under 5 µM.
With `COCc1cc(C)nc2sc3c(=O)[nH]nnc3c12` [Compound 76, 9-Methoxymethyl-7-methyl-3H-pyrido[3′,2′:4,5]thieno[3,2-d][1,2,3]triazin-4-one] the EC50 was 5 to 25 µM.
For `NC(=O)c1sc2nc3c(cc2c1N)CCCCC3` [Compound 82, 3-Amino-6,7,8,9-tetrahydro-5H-1-thia-10-aza-cyclohepta[f]indene-2-carboxylic acid amide], the EC50 was 5 to 25 µM.
With `COc1ccc(NC(=O)c2sc3nc4c(c(-c5cccs5)c3c2N)CN(C)CC4)cc1` [Compound 28, 3-Amino-6-methyl-4-thiophen-2-yl-5,6,7,8-tetrahydro-thieno[2,3-b][1,6]naphthyridine-2-carboxylic acid (4-methoxy-phenyl)-amide] the EC50 was under 5 µM.
Work on `COc1ccc(Cl)cc1NC(=O)c1sc2nc3c(cc2c1N)CN(C)CC3` [Compound 37, 3-Amino-6-methyl-5,6,7,8-tetrahydro-thieno[2,3-b][1,6]naphthyridine-2-carboxylic acid (5-chloro-2-methoxy-phenyl)-amide] yielded an EC50 of under 5 µM.
